Results: ChEMBL document CHEMBL3621050, “Activity and anion inhibition studies of the α-carbonic anhydrase from Thiomicrospira crunogena XCL-2 Gammaproteobacterium” (Bioorg Med Chem Lett, 2015)

Columns and labels:
[1] = molecular target: T1, Carbonic anhydrase, alpha family (Thiomicrospira crunogena, UniProt Q31FD6); assay: Inhibition of Thiomicrospira crunogena XCL-2 alpha-carbonic anhydrase expressed in Escherichia coli BL21 (DE3) cells by [18O]-exchange mass spectroscopy
T1 sequence (Q31FD6 whole entry): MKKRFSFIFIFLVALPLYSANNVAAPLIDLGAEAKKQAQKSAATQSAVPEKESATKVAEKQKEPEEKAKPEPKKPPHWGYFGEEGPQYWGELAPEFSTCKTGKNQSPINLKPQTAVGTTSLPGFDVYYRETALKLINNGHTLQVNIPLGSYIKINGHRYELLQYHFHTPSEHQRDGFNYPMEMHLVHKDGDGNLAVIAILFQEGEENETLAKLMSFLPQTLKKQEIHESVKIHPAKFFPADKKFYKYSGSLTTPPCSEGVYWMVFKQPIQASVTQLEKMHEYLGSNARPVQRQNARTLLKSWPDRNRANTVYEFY

[2] = Inhibition of Vibrio cholerae alpha-carbonic anhydrase by [18O]-exchange mass spectroscopy
[3] = Inhibition of Sulfurihydrogenibium yellowstonense YO3AOP1 alpha-carbonic anhydrase by [18O]-exchange mass spectroscopy
[4] = Inhibition of Sulfurihydrogenibium azorense alpha-carbonic anhydrase by [18O]-exchange mass spectroscopy

Compound | Ki [1] [µM] | Ki [2] [µM] | Ki [3] [µM] | Ki [4] [µM]
Cl [HYDROCHLORIC ACID] | 361000 | 930 | 8300 | 850
S [HYDROGEN SULFIDE] | 1.1 | 74 | 580 | 380
I [IODIDE] | 53000 | 9730 | 860 | 870
Br [BROMIDE] | 242000 | 28000 | 49000 | 940
